# Results taken from article PMC10745659, “Chemical Constituents and α-Glucosidase Inhibitory, Antioxidant and Hepatoprotective Activities of Ampelopsis grossedentata” (Molecules, 2023).
# How the values were obtained:
# [1] = ABTS radical cation scavenging assay; conditions: mean ± SD, n = 4; ascorbic acid positive control
# Protocol: The ABTS free radical scavenging capacity of all isolated compounds was measured, the procedure followed a method with minor modifications. […] Equal volumes of ABTS (2,2′-azinobis(3-ethylbenzthiazoline-6-sulphonic acid)) solution (7 mM) and potassium persulfate solution (2.45 mM) were mixed evenly and left to react at room temperature for 12 h in the dark to obtain ABTS radical cation. The mixture was then diluted with anhydrous methanol to achieve an absorbance value of about 0.7 ± 0.02 units at 405 nm. Then, 190 μL of ABTS working solution was added to each well, followed by 10 μL samples of varying concentrations (0.8, 0.4, 0.2, 0.1, 0.05, 0.025, 0.0125, and 0.00625 mM) that were dissolved and diluted with DMSO. After mixing well, the samples were incubated at room temperature for 6 min away from light. The subsequent experimental method is basically consistent with the DPPH assay, the only difference is that ABTS assay detects the absorbance value at 405 nm.
# The percentage radical cation scavenging rate (%) of each test sample for ABTS was calculated as follows:Radical cation scavenging rate (%) = [Ablank − (Asample − Acontral)] ÷ Ablank × 100%
# The IC50 values were calculated by using GraphPad Prism 9.0 software.
# [2] = FRAP assay (total antioxidant capacity); conditions: for FRAP Assay: Fe2+ concentration equivalent, sample solution 0.68 mM, mean ± SD, n = 4
# Protocol: The total antioxidant capacity of the samples was measured by the FRAP (ferric reducing ability of plasma) assay, with slight modifications. The acetate buffer (0.3 M, pH 3.6), TPTZ (2,4,6-tris(2-pyridyl)-S-triazine) solution (10 mM) in 40 mM HCl and ferric chloride aqueous solution (10 mM) were uniformly mixed at a volume ratio of 7:1:1 to obtain the FRAP working solution. FRAP working solution was preheated for 10 min in a constant temperature incubator at 37 °C before use. […] Then, 180 μL of FRAP working solution was added to each well, followed by 6 μL of sample solution (0.68 mM), and finally 18 μL of distilled water. Then, the mixture was stirred well and left to react at room temperature for 10 min. The absorbance values of each well were measured at 593 nm using a microplate reader and the results were obtained from at least three independent experiments. The sample solution was replaced with DMSO as a blank solution and ascorbic acid was used as a positive control. Different concentrations of FeSO4·7H2O (0.075–0.00078 μmol/mL) were used to establish the standard curve. The antioxidant capacity of the sample was expressed as the Fe^2+ concentration (μmol/mL) required to achieve the same absorbance change value. The final result was calculated by GraphPad Prism 9.0 software and presented as mean ± standard deviation (SD) of μmol Fe^2+ per milliliter.
# [3] = DPPH free radical scavenging assay; conditions: mean ± SD, n = 4; ascorbic acid positive control
# Protocol: The DPPH free radical scavenging capacity of isolated compounds was determined according to a modified method. […] All isolated compounds and positive drug were dissolved and diluted in DMSO and DPPH (2,2-Diphenyl-1-picrylhydrazyl) was dissolved in anhydrous ethanol. Briefly, 190 μL of a working solution of DPPH (0.2 mM) was added to each well. Then, 10 μL of a sample solution of different concentrations (1.6, 1.2, 0.8, 0.4, 0.2, and 0.1 mM) was added, mixed well, and left to incubate in the dark at room temperature for 60 min. After that, the absorbance values of each well were measured at 517 nm using a microplate reader and the results were obtained from a minimum of three independent experiments. Ascorbic acid was used as the positive control. DMSO was used to replace the sample solution as a blank and absolute ethanol was used to replace the DPPH solution as a control.
# The percentage free radical scavenging rate (%) of each test sample for DPPH was calculated as:Free radical scavenging rate (%) = [Ablank − (Asample − Acontral)] ÷ Ablank × 100%
# HepG2 cells = assay: Hepatoprotective activity, APAP-induced HepG2 cell injury model (CCK-8); format: cell-based; conditions: for viability at 20 µM: Homo sapiens, 20 μM compound, APAP 6 mM, 48 h, HepG2, APAP model 68.24 ± 1.34%, n = 3, mean ± SD; for hepatoprotective activity (in words): 20 μM, APAP-induced HepG2 cell injury
# Protocol: All these parameters were higher than in the preparation of cell viability positive control of 83.01 ± 0.82%.
# HepG2 cells were maintained in DMEM medium supplemented with 10% fetal bovine serum, 100 U/mL penicillin G, and 100 μg/mL streptomycin. The cells were seeded in culture flasks and placed in a 5% CO2 incubator at 37 °C for routine cultivation. The hepatoprotective activities of the isolated samples were tested according to the modified method. To evaluate the effect of test samples on cell viability, a CCK-8 assay was performed. The experiment was conducted in 96-well plates, and 100 μL of HepG2 cells in logarithmic growth phase (8 × 10^5 cells/mL) were seeded in each well and cultured for 24 h. After that, samples (final concentration of 20 μM) and acetaminophen (APAP, final concentration of 6 mM) were added at one time to incubate for another 48 h. Then, 10 μL CCK-8 was added to each well and incubated for 1 h, followed by measuring the absorbance at a wavelength of 450 nm using a microplate reader.
# α-glucosidase = α-glucosidase (Saccharomyces cerevisiae, UniProt P53341); assay: α-glucosidase inhibitory assay (p-NPG substrate); format: biochemical
# Sequence of α-glucosidase (P53341 whole entry): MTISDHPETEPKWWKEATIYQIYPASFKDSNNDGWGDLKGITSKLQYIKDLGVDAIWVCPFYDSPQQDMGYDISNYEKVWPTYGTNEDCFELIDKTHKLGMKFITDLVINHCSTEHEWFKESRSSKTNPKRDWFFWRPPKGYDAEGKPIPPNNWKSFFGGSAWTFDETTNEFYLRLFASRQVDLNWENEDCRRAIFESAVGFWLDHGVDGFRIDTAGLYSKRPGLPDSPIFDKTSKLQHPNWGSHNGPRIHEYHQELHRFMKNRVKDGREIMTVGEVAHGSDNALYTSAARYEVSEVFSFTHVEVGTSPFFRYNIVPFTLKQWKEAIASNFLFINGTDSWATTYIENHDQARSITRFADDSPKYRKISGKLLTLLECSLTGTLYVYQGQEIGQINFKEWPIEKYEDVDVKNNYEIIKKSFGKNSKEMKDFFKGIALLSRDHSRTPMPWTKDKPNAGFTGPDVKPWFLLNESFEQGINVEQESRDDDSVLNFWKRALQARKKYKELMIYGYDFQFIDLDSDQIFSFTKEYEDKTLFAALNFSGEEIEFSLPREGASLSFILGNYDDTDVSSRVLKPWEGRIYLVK
# Protocol: The α-glucosidase inhibitory activities of isolated compounds were evaluated by using a method previously described, but with minor modifications [34]. […] Briefly, 98 μL of PBS (0.1 M, pH 6.8) was added to each well. Then, 2 μL of different concentrations of sample solutions and 25 μL of α-glucosidase solution (0.25 U/mL) were added. After shaking and mixing slightly, the 96-well plate was placed in a 37 °C constant-temperature incubator and incubated for 20 min. Next, 25 μL of p-NPG (4 mM) was added to the plate to initiate the reaction, and it was further incubated in a 37 °C constant-temperature incubator for 15 min. Then, 50 μL of Na2CO3 (0.2 M) solution was quickly added to each well to terminate the reaction. The absorbance was measured at 405 nm using a microplate reader, and the results were obtained from a minimum of three independent experiments.
Compound,IC50 [1],IC50 [3],"IC50 (α-glucosidase; mean ± SD, n = 4, acarbose positive control)",FRAP Assay [2],viability at 20 µM (HepG2 cells),α-glucosidase inhibition (in words) (α-glucosidase),hepatoprotective activity (in words) (HepG2 cells),FRAP value [2]
Myricitrin [Compound 13],6.88 ± 0.13 µM,35.03 ± 0.28 µM,,1.69 ± 0.02 µmol/mL,,minimally or not,,
"C[C@@H]1O[C@@H](Oc2c(-c3ccc(O)c(O)c3)oc3cc(O)cc(O)c3c2=O)[C@H](O)[C@H](O)[C@H]1O [Compound 18, Quercitrin]",9.96 ± 0.16 µM,63.5 ± 0.97 µM,,1.35 ± 0.02 µmol/mL,,minimally or not,essentially inactive,
"O=c1c(O)coc2cc(O)cc(O)c12 [Compound 11, 3,5,7-Trihydroxychromone]",> 20 µM,> 80 µM,,0.15 ± 0.00 µmol/mL,,,,
"O=C1C[C@@H](c2ccc(O)cc2)Oc2cc(O)cc(O)c21 [Compound 6, Naringenin]",> 20 µM,> 80 µM,,0.07 ± 0.00 µmol/mL,83.7 ± 0.67%,,,
"O=C(CCc1ccc(O)cc1)c1c(O)cc(O)cc1O[C@@H]1O[C@H](CO)[C@@H](O)[C@H](O)[C@H]1O [Compound 15, Phloridzin]",> 20 µM,> 80 µM,,0.17 ± 0.01 µmol/mL,,minimally or not,,
"COC(=O)c1cc(OC)c2c(c1-c1c(CO)cc(OC)c3c1OCO3)OCO2 [bicyclol, reference compound]",,,,,83.01 ± 0.82%,,,
lunularin [Compound 9],> 20 µM,> 80 µM,9.42 ± 0.51 µM,0.09 ± 0.00 µmol/mL,,,,
"C[C@@H]1O[C@@H](Oc2c(-c3ccc(O)cc3)oc3cc(O)cc(O)c3c2=O)[C@H](O)[C@H](O)[C@H]1O [Compound 14, Afzelin]",> 20 µM,> 80 µM,,0.07 ± 0.00 µmol/mL,,,essentially inactive,
"O=C(O)c1c(O)cccc1CCc1ccc(O)cc1 [Compound 8, lunularic acid]",> 20 µM,> 80 µM,,0.13 ± 0.01 µmol/mL,,,,

# Now from value to compound, other results behind:
IC50 [1],IC50 [3],"IC50 (α-glucosidase; mean ± SD, n = 4, acarbose positive control)",Compound,FRAP Assay [2],viability at 20 µM (HepG2 cells),α-glucosidase inhibition (in words) (α-glucosidase),hepatoprotective activity (in words) (HepG2 cells),FRAP value [2]
> 20 µM,> 80 µM,,"CC(C)CC(=O)c1c(O)cc(O)cc1O[C@@H]1O[C@H](CO)[C@@H](O)[C@H](O)[C@H]1O [Compound 16, 2-O-[1-(3-Methylbutyryl)phloroglucin-ol]-β-D-glucopyranoside]",0.24 ± 0.01 µmol/mL,,,,
2.76 ± 0.04 µM,25.5 ± 0.63 µM,,"O=c1c(O)c(-c2ccc(O)c(O)c2)oc2cc(O)cc(O)c12 [Compound 4, Quercetin]",2.67 ± 0.01 µmol/mL,84.9 ± 1.21%,,,
7.36 ± 0.08 µM,39.21 ± 0.18 µM,,"O=C1c2c(O)cc(O)cc2OC(c2ccc(O)c(O)c2)C1O (stereo not shown) [Compound 12, Taxifolin]",1.32 ± 0.01 µmol/mL,85.4 ± 1.22%,,,
6.73 ± 0.03 µM,44.4 ± 0.63 µM,,"C[C@@H]1O[C@@H](Oc2c(-c3ccc(O)c(O)c3)oc3c(O)c(O)c(O)c(O)c3c2=O)[C@H](O)[C@H](O)[C@H]1O [Compound 2, Meichasu B]",1.96 ± 0.01 µmol/mL,88.46 ± 0.63%,,,
19 ± 0.31 µM,77.9 ± 0.87 µM,,"O=C1O[C@H]([C@@H](O)CO)C(O)=C1O [ascorbic acid, reference compound]",0.57 ± 0.01 µmol/mL,,,,
2.19 ± 0.01 µM,17.3 ± 0.31 µM,,"O=C(O[C@H]1C(=O)c2c(O)cc(O)cc2O[C@@H]1c1cc(O)c(O)c(O)c1)c1cc(O)c(O)c(O)c1 [Compound 19, (2R,3R)-3,4-Dihydro-5,7-dihydroxy-4-oxo-2-(3,4,5-trihydroxyphenyl)-2H-1-benzopyran-3-yl 3,4,5-trihydroxybenzoate]",2.79 ± 0.01 µmol/mL,,,,2.79 µmol/mL
5.01 ± 0.11 µM,43.5 ± 0.36 µM,,"O=C1c2c(O)cc(O)cc2O[C@@H](c2cc(O)c(O)c(O)c2)[C@@H]1O [Compound 10, (2S,3S)-Dihydromyricetin]",1.43 ± 0.01 µmol/mL,,,,
4.43 ± 0.02 µM,32.52 ± 0.16 µM,,"O=C(O[C@H]1C(=O)c2c(cc(O)c(O)c2O)O[C@@H]1c1cc(O)c(O)c(O)c1)c1cc(O)c(O)c(O)c1 [Compound 1, Meichasu A]",1.70 ± 0.00 µmol/mL,84.93 ± 0.58%,,,
19.9 ± 0.46 µM,> 80 µM,,"O=c1c(O)c(-c2ccc(O)cc2)oc2cc(O)cc(O)c12 [Compound 7, Kaempferol]",0.85 ± 0.01 µmol/mL,87.08 ± 0.6%,,,
3.39 ± 0.07 µM,29.8 ± 0.59 µM,,"O=c1c(O)c(-c2cc(O)c(O)c(O)c2)oc2cc(O)cc(O)c12 [Compound 5, Myricetin]",1.72 ± 0.01 µmol/mL,,,moderate hepatoprotective activities,
10.2 ± 0.13 µM,43.1 ± 0.94 µM,,"O=C1CC(c2cc(O)c(O)c(O)c2)Oc2cc(O)cc(O)c21 (stereo not shown) [Compound 17, 5,7,3′,4′,5′-Pentahydroxy flavanone]",1.18 ± 0.01 µmol/mL,,,,
5.91 ± 0.11 µM,28.3 ± 0.38 µM,,"O=C1c2c(O)cc(O)cc2O[C@H](c2cc(O)c(O)c(O)c2)[C@H]1O [Compound 3, (2R,3R)-Dihydromyricetin]",1.71 ± 0.01 µmol/mL,,,moderate hepatoprotective activities,
